Measurements reported in the supplement of paper PMC10307832.

Experiments:
Assay in all cases: relative viability (nuclei count vs DMSO), 5 days (fraction); higher = more cells survive
NCI-H2347 = test system: NCI-H2347
Procedure, shortened: (§1)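 Five library-drug doses in √10 steps were combined with a fixed anchor-drug dose, or a single drug was given alone, by pin tool to lung cancer cell lines in 1536-well plates the day after seeding. Nuclei were stained and counted after 5 days. Relative viability is the nuclei count in treated wells over that in vehicle wells, taken as the median of duplicate plates.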

NCI-H727 = test system: NCI-H727
Procedure, shortened: as §1

UMC-11 = test system: UMC-11
Procedure, shortened: as §1

201T = test system: 201T
Procedure, shortened: as §1

NCI-H1650 = test system: NCI-H1650
Procedure, shortened: as §1

NCI-H1734 = test system: NCI-H1734
Procedure, shortened: as §1

NCI-H1355 = test system: NCI-H1355
Procedure, shortened: as §1

HCC-78 = test system: HCC-78
Procedure, shortened: as §1

HCC-44 = test system: HCC-44
Procedure, shortened: as §1

HCC-366 = test system: HCC-366
Procedure, shortened: as §1

ABC-1 = test system: ABC-1
Procedure, shortened: as §1

NCI-H838 = test system: NCI-H838
Procedure, shortened: as §1

NCI-H1666 = test system: NCI-H1666
Procedure, shortened: as §1

NCI-H358 = test system: NCI-H358
Procedure, shortened: as §1

NCI-H2228 = test system: NCI-H2228
Procedure, shortened: as §1

LK-2 = test system: LK-2
Procedure, shortened: as §1

BEN = test system: BEN
Procedure, shortened: as §1

NCI-H2009 = test system: NCI-H2009
Procedure, shortened: as §1

LOU-NH91 = test system: LOU-NH91
Procedure, shortened: as §1

NCI-H2405 = test system: NCI-H2405
Procedure, shortened: as §1

NCI-H520 = test system: NCI-H520
Procedure, shortened: as §1

SW 1573 = test system: SW 1573
Procedure, shortened: as §1

NCI-H1755 = test system: NCI-H1755
Procedure, shortened: as §1

CCCCCCCCCCCC1=C(O)C(=O)C=C(O)C1=O [Embelin] + N=C(N)NC(=N)NCCc1ccccc1 [Phenformin] (partner 250 µM)
relative viability (NCI-H2347; first compound 0.08 µM): 0.308
relative viability (NCI-H2347; first compound 0.8 µM): 0.386
relative viability (NCI-H2347; first compound 2.53 µM): 0.345
relative viability (NCI-H2347; first compound 8 µM): 0.377
relative viability (NCI-H727; first compound 0.08 µM): 0.563
relative viability (NCI-H727; first compound 0.8 µM): 0.597
relative viability (NCI-H727; first compound 2.53 µM): 0.513
relative viability (NCI-H727; first compound 8 µM): 0.5
relative viability (UMC-11; first compound 0.08 µM): 0.33
relative viability (UMC-11; first compound 0.8 µM): 0.339
relative viability (UMC-11; first compound 2.53 µM): 0.323
relative viability (UMC-11; first compound 8 µM): 0.314
relative viability (201T; first compound 0.08 µM): 0.432
relative viability (201T; first compound 0.8 µM): 0.49
relative viability (201T; first compound 2.53 µM): 0.482
relative viability (201T; first compound 8 µM): 0.385
relative viability (NCI-H1650; first compound 0.08 µM): 0.434
relative viability (NCI-H1650; first compound 0.8 µM): 0.558
relative viability (NCI-H1650; first compound 2.53 µM): 0.485
relative viability (NCI-H1650; first compound 8 µM): 0.376
relative viability (NCI-H1734; first compound 0.08 µM): 0.383
relative viability (NCI-H1734; first compound 0.8 µM): 0.521
relative viability (NCI-H1734; first compound 2.53 µM): 0.526
relative viability (NCI-H1734; first compound 8 µM): 0.327
relative viability (NCI-H1355; first compound 0.08 µM): 0.482
relative viability (NCI-H1355; first compound 0.8 µM): 0.535
relative viability (NCI-H1355; first compound 2.53 µM): 0.442
relative viability (NCI-H1355; first compound 8 µM): 0.392
relative viability (HCC-78; first compound 0.08 µM): 0.661
relative viability (HCC-78; first compound 0.8 µM): 0.729
relative viability (HCC-78; first compound 2.53 µM): 0.761
relative viability (HCC-78; first compound 8 µM): 0.929
relative viability (HCC-44; first compound 0.08 µM): 0.175
relative viability (HCC-44; first compound 0.8 µM): 0.252
relative viability (HCC-44; first compound 2.53 µM): 0.0967
relative viability (HCC-44; first compound 8 µM): 0.0958
relative viability (HCC-366; first compound 0.08 µM): 0.646
relative viability (HCC-366; first compound 0.8 µM): 0.638
relative viability (HCC-366; first compound 2.53 µM): 0.644
relative viability (HCC-366; first compound 8 µM): 0.676
relative viability (ABC-1; first compound 0.08 µM): 0.251
relative viability (ABC-1; first compound 0.8 µM): 0.237
relative viability (ABC-1; first compound 2.53 µM): 0.256
relative viability (ABC-1; first compound 8 µM): 0.194
relative viability (NCI-H838; first compound 0.08 µM): 0.641
relative viability (NCI-H838; first compound 0.8 µM): 0.879
relative viability (NCI-H838; first compound 2.53 µM): 0.543
relative viability (NCI-H838; first compound 8 µM): 0.516
relative viability (NCI-H1666; first compound 0.08 µM): 0.57
relative viability (NCI-H1666; first compound 0.8 µM): 0.631
relative viability (NCI-H1666; first compound 2.53 µM): 0.507
relative viability (NCI-H1666; first compound 8 µM): 0.575
relative viability (NCI-H358; first compound 0.08 µM): 0.322
relative viability (NCI-H358; first compound 0.8 µM): 0.398
relative viability (NCI-H358; first compound 2.53 µM): 0.468
relative viability (NCI-H358; first compound 8 µM): 0.36
relative viability (NCI-H2228; first compound 0.08 µM): 0.332
relative viability (NCI-H2228; first compound 0.8 µM): 0.314
relative viability (NCI-H2228; first compound 2.53 µM): 0.403
relative viability (NCI-H2228; first compound 8 µM): 0.309
relative viability (LK-2; first compound 0.08 µM): 0.626
relative viability (LK-2; first compound 0.8 µM): 0.278
relative viability (LK-2; first compound 2.53 µM): 0.735
relative viability (LK-2; first compound 8 µM): 0.26
relative viability (BEN; first compound 0.08 µM): 0.267
relative viability (BEN; first compound 0.8 µM): 0.285
relative viability (BEN; first compound 2.53 µM): 0.264
relative viability (BEN; first compound 8 µM): 0.263
relative viability (NCI-H2009; first compound 0.08 µM): 0.495
relative viability (NCI-H2009; first compound 0.8 µM): 0.598
relative viability (NCI-H2009; first compound 2.53 µM): 0.44
relative viability (NCI-H2009; first compound 8 µM): 0.295
relative viability (LOU-NH91; first compound 0.08 µM): 0.757
relative viability (LOU-NH91; first compound 0.8 µM): 0.895
relative viability (LOU-NH91; first compound 2.53 µM): 0.566
relative viability (LOU-NH91; first compound 8 µM): 0.492
relative viability (NCI-H2405; first compound 0.08 µM): 0.408
relative viability (NCI-H2405; first compound 0.8 µM): 0.445
relative viability (NCI-H2405; first compound 2.53 µM): 0.367
relative viability (NCI-H2405; first compound 8 µM): 0.341
relative viability (NCI-H520; first compound 0.08 µM): 0.632
relative viability (NCI-H520; first compound 0.8 µM): 0.352
relative viability (NCI-H520; first compound 2.53 µM): 0.742
relative viability (NCI-H520; first compound 8 µM): 0.338
relative viability (SW 1573; first compound 0.08 µM): 0.433
relative viability (SW 1573; first compound 0.8 µM): 0.366
relative viability (SW 1573; first compound 2.53 µM): 0.479
relative viability (SW 1573; first compound 8 µM): 0.376
relative viability (NCI-H1755; first compound 0.08 µM): 0.646
relative viability (NCI-H1755; first compound 0.8 µM): 0.656
relative viability (NCI-H1755; first compound 2.53 µM): 0.608
relative viability (NCI-H1755; first compound 8 µM): 0.6
